{"source": "paper PMC6196658", "about": "“Activity of Thioallyl Compounds From Garlic Against Giardia duodenalis Trophozoites and in Experimental Giardiasis” (Frontiers in Cellular and Infection Microbiology, 2018)", "key": {"[1]": {"test_system": "G. duodenalis trophozoites", "assay": "Annexin V-PI flow cytometry (apoptosis/necrosis)", "format": "cell-based, Giardia duodenalis", "details": "0.48 μM, 24 h", "description": "(§1) The identification and quantitative determinations of trophozoites were carried out as follows: (a) apoptosis or necrosis were determined using anti-annexin V-fluorescein isothiocyanate (FITC) antibodies or PI as respective markers, (b) oxidative stress was determined by formation of reactive oxygen species (ROS) with the fluorescent ROS-complexing agent 5-(and 6)-carboxy 2′7′-dichlorodihydrofluorescein diacetate (H2DCFDA), and (c) determination of trophozoites cell cycle stages (G1, S, G2, and G2/M) after exposure to ALC or to a control drug (albendazole, ABZ) was carried out as previously described (Martínez-Espinosa et al., [2015]). In all these assays 20,000 cells per sample were recorded."}, "[2]": {"test_system": "G. duodenalis trophozoites", "assay": "ROS formation, H2DCFDA flow cytometry", "format": "cell-based, Giardia duodenalis", "description": "as §1"}, "[3]": {"test_system": "G. duodenalis trophozoites", "assay": "Cell cycle stages, PI flow cytometry", "format": "cell-based, Giardia duodenalis", "details": "1.35 μM, 24 h", "description": "as §1"}, "[4]": {"test_system": "G. duodenalis trophozoites", "assay": "In vitro susceptibility, subculture in liquid medium (SCLM)", "format": "cell-based, Giardia duodenalis (WB strain)", "details": "for MLC (mM) ±SD / IC50: SCLM, 24 h exposure; for IC50: read-out: IC50 (mM) ±SD"}, "[5]": {"test_system": "cysteine protease activities in trophozoite lysates", "assay": "Proteolytic activity assay (gelatin zymogram)", "format": "biochemical, Giardia duodenalis", "description": "Trophozoite lysates were prepared as mentioned above except that cell lysis was carried out by sonication in 1.5 mL microcentrifuge tubes under ice bath using eight 15-s pulses at 80% amplitude with resting periods of 30 s (Ultrasonic Processor mod. CV19). Protein concentration was adjusted to 2 mg/mL and aliquoted in 25 μL fractions that were incubated for 30 min room temperature with 2–5 μL stock solutions of representative TACs (ALC, DADS, and AM). The reaction mixtures were diluted in Laemmli's sample buffer, loaded in wells of 10% acrylamide-02% gelatin slab gels and these were electrophoretically analyzed using 80 V/4°C. After this, gels were incubated in a solution of triton X-100 2.5% (v/v) in water for 1 h and washed 3 times with distilled water. Bands with proteolytic activity were detected as follows: gels were incubated in acetate buffer pH 5.5 with 1 mM DTT for 16 h at 37°C under constant stirring, washed 3 times with distilled water and stained with Coomassie blue (BioRad) for 2 h at 37°C under constant stirring. Finally, gels were washed with distilled water and incubated with a solution of 5% acetic acid/40% methanol (v/v). Gel images were documented with a UVP High Performance Ultraviolet Transilluminator and software Launch DocItLS."}, "giardipain-1": {"molecular_target": "T1, giardipain-1 (Giardia intestinalis, UniProt P92132)", "T1 construct": "the 25 kDa band that contains the processed form of the cathepsin B-like protease named as giardipain-1; endogenous in cells", "T1 sequence (P92132 75-300)": "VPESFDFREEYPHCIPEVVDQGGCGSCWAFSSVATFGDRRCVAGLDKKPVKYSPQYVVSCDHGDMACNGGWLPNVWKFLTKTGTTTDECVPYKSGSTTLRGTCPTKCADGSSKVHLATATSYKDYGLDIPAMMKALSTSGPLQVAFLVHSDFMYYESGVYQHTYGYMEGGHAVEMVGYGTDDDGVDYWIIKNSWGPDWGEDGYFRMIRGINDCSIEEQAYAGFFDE", "assay": "Inhibition of cytolytic effect of giardipain-1 on IEC6 cell monolayers", "format": "cell-based, Giardia duodenalis", "details": "100 min", "description": "(§2) Additional assays were carried out using the MLCs of TACs (without giardipain-1) previously obtained in trophozoite cultures to monitor their toxicity. These solutions were added to monolayers of the intestinal cell line IEC6 grown in 1 cm^2-microwells and incubated for 100 min at 37°C. After incubation, supernatants were discarded and monolayers were fixed with 2% paraformaldehyde in PBS. The effects of TACs and E64 on the cytolytic effect of giardipain-1 were evaluated by light microscopy using Nomarski optics (Axioskop 40, Zeiss)."}, "[6]": {"test_system": "thiol groups exposed in G. duodenalis trophozoite proteins", "assay": "Thiol-modifying activity (inhibition of thiol-DTNB complexes)", "format": "biochemical, Giardia duodenalis", "details": "100 μg soluble trophozoite protein, 10 min 37°C, DTNB 412 nm", "description": "The technique reported by Lawson and Wang ([1993]) was followed. In these assays trophozoites were collected from 60 mL flasks, washed 3 times with PBS and resuspended in 500 μL PBS containing a 1:12.5 dilution of a commercial mixture of protease inhibitors (Complete^TM, Roche Diagnostics GmbH, Indianapolis, IN, USA) and lysed by sonication at 12 microns/60% amplitude (Ultrasonic apparatus Sonic UVX1130PB). Soluble proteins were recovered by centrifugation at 15,400 × g for 30 min at 4°C and protein concentration was determined by the Bradford technique. These samples were adjusted to a concentration of 1 mg/mL. Reactions were carried out in 1.5 mL microcentrifuge tubes with a mixture of 100 μg protein (100 μL) and NaH2PO4 45 mM pH 7.0 mM (800 μL) to which increasing volumes of TACs stocks or a positive control with the thiol derivatizing agent MMTS prepared at 50 mM in the same buffer, were added and total volume was adjusted to 1 mL. After incubation for 10 min at 37°C, 100 μL of 1.5 mM dithionitrobenzoic acid (DTNB, Ellman's reagent) were added to each tube and following incubation for 10 min at room temperature the absorbances (yellow solutions) were recorded at 412 nm (Smart Spec 3000^TM, Bio-Rad, Hercules, CA, USA). A calibration curve was obtained using increasing volumes (0–100 μL) of 15.5 mM cysteine instead protein extracts and the maximal blocking concentration (MBC) corresponding to a complete absence of thiol-DTNB complexes produced by TACs were calculated using the least-square method (Microsoft Excel^TM)."}, "IEC6 cell monolayers": {"test_system": "IEC6 cell monolayers", "assay": "Toxicity of TACs on IEC6 cell monolayers", "format": "cell-based", "details": "275 mM, without giardipain-1, 100 min", "description": "as §2"}, "[7]": {"test_system": "G. duodenalis trophozoites", "design": "method as in Argüello-García et al., 2004", "details": "positive control drug; ref Argüello-García et al., 2004; cited from earlier work"}, "[8]": {"test_system": "G. duodenalis trophozoites", "assay": "Efficacy in experimental giardiasis", "details": "read day 13", "experimental": "Eighty male Mongolian gerbils (M. unguiculatus) 6–10 weeks old, weighted 45–60 g and sentinel-checked gerbils free of intestinal parasites were kept in individual cages and distributed in 12 groups of 6 animals per treatment and experimental infections were performed as described elsewhere (Argüello-García and Ortega-Pierres, [1997]). In brief, animals were inoculated intragastrically with 1 × 10^6 G. duodenalis trophozoites in 500 μl sterile PBS per os using gavage under ether anesthesia. Control animals received 500 μl sterile PBS each. […] As additional control, one group of animals received MTZ (38.4 mg/kg at single or double dose). […] Treatment efficacy was evaluated by determining the presence or absence of trophozoites in intestinal contents of control and treated gerbils at day 13 post-infection. For this, gerbils were euthanized by an intraperitoneal injection of pentobarbital at a dose of 150 mg/kg to minimize stress and to reduce suffering, then a 10 cm-long section of intestine (from stomach ending, equivalent to nearly the entire small intestine) was excised after laparotomy, and it was longitudinally opened and rinsed in 20 mL PBS at 4°C for 20 min under shaking (720 rpm, Heidolph^TM rotatory shaker) to determine trophozoites number after parasite detachment from microvilli. Supernatant was collected and centrifuged at 750 × g for 10 min at 4°C, cell pellet was resuspended in 1 mL PBS and trophozoites were counted using a haemocytometer. Gerbils were scored as cured if no trophozoites were recovered from infected animals."}}, "note": "Several values for one entry are separate records, joined by “and”; a condition that tells them apart may be missing. Equal entries are not always repeated. Where two headings read alike, the source gives them in different places.", "data": [{"molecule": "CCCSc1ccc2nc(NC(=O)OC)[nH]c2c1", "note": "[ABZ, albendazole]", "values": [{"measurement": "R1 cells positive for necrosis (PI+)", "setting": "[1]", "result": 5, "unit": "%"}, {"measurement": "cells in apoptosis (early plus late)", "setting": "[1]", "result": 41.0, "unit": "%"}, {"measurement": "cells positive for ROS (total)", "setting": "[2]; ABZ control, 0.48 μM per Figure 9, 24 h", "result": 33.85, "unit": "%"}, {"measurement": "cells at G2 phase", "setting": "[3]", "result": 69.9, "unit": "%"}, {"measurement": "cells at S phase", "setting": "[3]", "result": 22.1, "unit": "%"}]}, {"molecule": "C=CCS", "note": "[AM, allyl mercaptan]", "values": [{"measurement": "MLC (mM) ±SD", "setting": "[4]", "result": 3.06, "unit": "mM"}, {"measurement": "MLC (mM) ±SD", "setting": "[4]; listed as Allyl Mercaptan (AM)", "result": "3.06 ± 0.7", "unit": "mM"}, {"measurement": "IC50", "setting": "[4]", "result": "0.83 ± 0.2", "unit": "mM"}, {"measurement": "effect on proteolytic bands in zymogram", "setting": "[5]; bands of 75, 60 and 25 kDa, concentration not given", "result": "significant increase of activity"}, {"measurement": "effect on giardipain-1 cytopathic damage in IEC6 monolayers", "setting": "giardipain-1; 514 mM pre-incubated 30 min with giardipain-1 16 μg/mL", "result": "noticeably blocked these effects"}]}, {"molecule": "C=CCSC", "note": "[AMS, allyl methyl sulfide]", "values": [{"measurement": "MLC (mM) ±SD", "setting": "[4]", "result": 74.28, "unit": "mM"}, {"measurement": "MLC (mM) ±SD", "setting": "[4]; listed as Allyl Methyl Sulfide (AMS)", "result": "74.28 ± 12.3", "unit": "mM"}, {"measurement": "IC50", "setting": "[4]", "result": "40.3 ± 3.5", "unit": "mM"}, {"measurement": "MBC (maximal blocking concentration) ± SD", "setting": "[6]", "result": "845.9 mmol/mg protein and 845.96 ± 78.1 mmol/mg protein"}]}, {"molecule": "C=CCSSCC=C", "note": "[DADS, diallyl disulphide]", "values": [{"measurement": "MLC (mM) ±SD", "setting": "[4]", "result": 2.66, "unit": "mM"}, {"measurement": "MLC (mM) ±SD", "setting": "[4]; listed as Diallyl Disulfide (DADS)", "result": "2.66 ± 0.8", "unit": "mM"}, {"measurement": "IC50", "setting": "[4]", "result": "1.4 ± 0.6", "unit": "mM"}, {"measurement": "MBC (maximal blocking concentration) ± SD", "setting": "[6]", "result": "> 200 mmol/mg protein and 224.58 ± 18.8 mmol/mg protein"}, {"measurement": "effect on proteolytic bands in zymogram", "setting": "[5]; 275 mM", "result": "could diminish similar activities except for the one at 60 kDa"}, {"measurement": "effect on giardipain-1 cytopathic damage in IEC6 monolayers", "setting": "giardipain-1; 275 mM pre-incubated 30 min with giardipain-1 16 μg/mL", "result": "reduced the frequency of cells displaying apoptotic damage"}, {"measurement": "toxicity to IEC6 cell monolayers", "setting": "IEC6 cell monolayers", "result": "affected some cells"}]}, {"molecule": "C=CCSCC=C", "note": "[DAS, diallyl sulfide]", "values": [{"measurement": "IC50", "setting": "[4]; Giardia duodenalis", "result": "14.5 ± 2.3", "unit": "mM"}, {"measurement": "MLC (mM) ±SD", "setting": "[4]", "result": 23.71, "unit": "mM"}, {"measurement": "MLC (mM) ±SD", "setting": "[4]; listed as Diallyl Sulfide (DAS)", "result": "23.71 ± 6.0", "unit": "mM"}, {"measurement": "MBC (maximal blocking concentration) ± SD", "setting": "[6]", "result": "351.3 mmol/mg protein and 351.34 ± 78.9 mmol/mg protein"}]}, {"molecule": "C=CCSSSCC=C", "note": "[DATS, diallyl trisulfide]", "values": [{"measurement": "MLC (mM) ±SD", "setting": "[4]", "result": "1.35 ± 0.18", "unit": "mM"}, {"measurement": "MBC (maximal blocking concentration) ± SD", "setting": "[6]", "result": "> 200 mmol/mg protein and 201.61 ± 33.4 mmol/mg protein"}]}, {"molecule": "CC(C)C[C@H](NC(=O)[C@H]1O[C@@H]1C(=O)O)C(=O)NCCCCN=C(N)N", "note": "[E64, reference compound]", "values": [{"measurement": "effect on proteolytic bands in zymogram", "setting": "[5]; 20 μM", "result": "selective inhibition on the 25 kDa band"}, {"measurement": "effect on giardipain-1 cytopathic damage in IEC6 monolayers", "setting": "giardipain-1; 20 μM pre-incubated 30 min with giardipain-1 16 μg/mL", "result": "efficiently inhibited the giardipain-1 induced damage"}]}, {"molecule": "CSS(C)(=O)=O", "note": "[MMTS, methyl methanethiosulfonate, reference compound]", "values": [{"measurement": "MBC (maximal blocking concentration) ± SD", "setting": "[6]", "result": "55.45 ± 3.2", "unit": "mmol/mg protein"}]}, {"molecule": "Cc1ncc([N+](=O)[O-])n1CCO", "note": "[MTZ, metronidazole, reference compound]", "values": [{"measurement": "inhibition at 3 µM", "setting": "[4]; Giardia duodenalis, 3.0 μM, 24 h, positive control, read-out: inhibition of trophozoite growth", "result": "45 to 55", "unit": "%"}, {"measurement": "inhibition at 5.9 µM", "setting": "[4]; Giardia duodenalis, 5.9 μM, 24 h, positive control, read-out: inhibition of trophozoite growth", "result": "> 95", "unit": "%"}, {"measurement": "IC50", "setting": "[7]", "result": 3000, "unit": "nM"}, {"measurement": "MLC", "setting": "[7]", "result": 5.9, "unit": "µM"}, {"measurement": "cure rate (gerbils without trophozoites)", "setting": "[8]; 36 mg/kg at twice dose", "result": "5 out of 6"}, {"measurement": "cure rate (gerbils without trophozoites)", "setting": "[8]; 36 mg/kg single dose", "result": "3 out of 6"}]}, {"molecule": "CC(C)(C)OO", "note": "[TBHP, tert-butyl hydroperoxide]", "values": [{"measurement": "cells positive for ROS (total)", "setting": "[2]; TBHP control, 400 μM per Figure 9, 24 h", "result": 17.1, "unit": "%"}]}, {"molecule": "O=C([O-])c1cc[c]([Hg][OH])cc1.[Na+]", "note": "[pHMB, sodium p-hydroxymercuribenzoate, reference compound]", "values": [{"measurement": "effect on proteolytic bands in zymogram", "setting": "[5]; 10 mM", "result": "full inhibition of all proteolytic bands"}]}, {"molecule": "S-allyl-L-cysteine [SAC]", "values": [{"measurement": "MLC (mM) ±SD", "setting": "[4]", "result": 69.1, "unit": "mM"}, {"measurement": "MLC (mM) ±SD", "setting": "[4]; listed as S-Allyl Cysteine (SAC)", "result": "69.10 ± 13.1", "unit": "mM"}, {"measurement": "IC50", "setting": "[4]", "result": "40.8 ± 6.3", "unit": "mM"}, {"measurement": "MBC (maximal blocking concentration) ± SD", "setting": "[6]", "result": "1260.9 mmol/mg protein and 1260.99 ± 125.6 mmol/mg protein"}]}]}
